The values that follow come from patent US4897506A, “Isolation of alpha-l-aspartyl-l-phenylalanine methyl ester from aqueous medium” (Mitsui Toatsu Chemicals, Incorporated, priority 1987, dated 1990).

For data set [1] the following is noted: pH; cited from earlier work.
For data set [2] the following is noted: crystallized by cooling without forced flow, Japanese Laid-Open Patent No. 177952/1983; cited from earlier work.
The nature of data set [3]: Thermal stability in solution (diketopiperazine formation). In kind it is physicochemical. To be noted: aqueous medium, temperatures higher than 70° C.
Data set [4] is described as follows: Hard block formation on drying. In kind it is physicochemical. As to conditions: dry crystalline α-APM.
Data set [5] can be described thus: Solubilization of conventionally recrystallized α-APM (background). As to conditions: 250 mg in 250 ml water, room temperature. In kind it is physicochemical. The text has this: α-APM purified by conventional recrystallization methods has the disadvantage of poor solubilization (rate of solution) in water.

Residues, ends and D or L forms follow the SMILES beside them.

Take `COC(=O)[C@H](Cc1ccccc1)NC(=O)[C@@H](N)CC(=O)O` [α-APM, α-L-aspartyl-L-phenylalanine methyl ester] (H-Asp-Phe-OMe): the isoelectric point in data set [1] was 5.6. Moreover, in data set [2], the “solubilization compared to conventionally crystallized product” value is recorded as “excellent solubilization as compared to conventionally crystallized product”. For the same molecule, the “thermal stability in solution” value in data set [3] is recorded as “diketopiperazine compound is undesirably formed as by-product”. For the same molecule, the “hard block formation in the dry state” value in data set [4] is “forms a hard block in the dry state”. Further, the “time required to dissolve completely” value in data set [5] (crushed powder recrystallized from 50 vol. % aqueous methanol, stirring and standing every 30 seconds) is given as “more than 15 minutes”. In addition, in data set [5] (recrystallized from 50 vol. % aqueous methanol), the “undissolved α-APM after 5 minutes” value is listed as “a significant amount of undissolved α-APM remains even after 5 minutes”.
